# Results published in ChEMBL document CHEMBL3885881, “DrugMatrix”.
# Organism: Rattus norvegicus
# Test: DrugMatrix - Regimen: Daily Repeat
# Assay type: toxicity, organism-based, Sprague-Dawley
# Set-up: regimen Daily Repeat, gender Male, age 6-8 weeks
# Details: in vivo, po, route oral GAVAGE, […]; for ABSOLUTE BASOPHIL / ABSOLUTE EOSINOPHIL / ABSOLUTE LYMPHOCYTE / ABSOLUTE MONOCYTE / ABSOLUTE SEGMENTED NEUTROPHIL / BASOPHIL / EOSINOPHIL / ERYTHROCYTE COUNT / HEMATOCRIT / HEMOGLOBIN / LEUKOCYTE COUNT / LYMPHOCYTE / MEAN CORPUSCULAR HEMOGLOBIN / MEAN CORPUSCULAR HEMOGLOBIN CONCENTRATION / MONOCYTE / NEUTROPHIL / NUCLEATED RED BLOOD CELLS / PLATELET COUNT: tissue Blood; for ALANINE AMINOTRANSFERASE / ALBUMIN / ALKALINE PHOSPHATASE / ASPARTATE AMINOTRANSFERASE / BLOOD UREA NITROGEN / CARBON DIOXIDE / CHLORIDE / CHOLESTEROL / CREATINE PHOSPHOKINASE / CREATININE / GLUCOSE / LACTATE DEHYDROGENASE / LIPASE / PHOSPHORUS / POTASSIUM / SODIUM / TOTAL BILIRUBIN / TOTAL PROTEIN / URIC ACID: tissue Plasma
# [1] = 0 mg/kg, 72 h, dose level Control, time 3 day
# [2] = 0 mg/kg, 120 h, dose level Control, time 5 day
# [3] = 0.2 mg/kg, 72 h, dose level Low, time 3 day
compound,measurement,setting,value
CCOC(=O)C1=C(COCCN)NC(C)=C(C(=O)OC)C1c1ccccc1Cl (stereo not given) [AMLODIPINE],ABSOLUTE BASOPHIL,[1],0 CELLS/uL
same,ABSOLUTE EOSINOPHIL,[1],70.67 CELLS/uL
same,ABSOLUTE LYMPHOCYTE,[1],12761.5 CELLS/uL
same,ABSOLUTE MONOCYTE,[1],214.17 CELLS/uL
same,ABSOLUTE SEGMENTED NEUTROPHIL,[1],987 CELLS/uL
same,BASOPHIL,[1],0%
same,EOSINOPHIL,[1],0.5%
same,ERYTHROCYTE COUNT,[1],5.61 x10E6/uL
same,HEMATOCRIT,[1],35.22%
same,HEMOGLOBIN,[1],13.57 G/DL
same,LEUKOCYTE COUNT,[1],14.03 x10E3/uL
same,LYMPHOCYTE,[1],91%
same,MEAN CORPUSCULAR HEMOGLOBIN,[1],24.25 pg
same,MEAN CORPUSCULAR HEMOGLOBIN CONCENTRATION,[1],38.52 G/DL
same,MONOCYTE,[1],1.5%
same,NEUTROPHIL,[1],7%
same,NUCLEATED RED BLOOD CELLS,[1],0 /100WBC
same,PLATELET COUNT,[1],997.5 x10E3/uL
same,ALANINE AMINOTRANSFERASE,[1],66.5 u/L
same,ALBUMIN,[1],3.98 G/DL
same,ALKALINE PHOSPHATASE,[1],350 u/L
same,ASPARTATE AMINOTRANSFERASE,[1],83.83 u/L
same,BLOOD UREA NITROGEN,[1],12.33 mg/dL
same,CARBON DIOXIDE,[1],30.33 mmol/L
same,CHLORIDE,[1],100 MEQ/L
same,CHOLESTEROL,[1],75 mg/dL
same,CREATINE PHOSPHOKINASE,[1],200 u/L
same,CREATININE,[1],0.17 mg/dL
same,GLUCOSE,[1],170 mg/dL
same,LACTATE DEHYDROGENASE,[1],89.33 u/L
same,LIPASE,[1],10.33 u/L
same,PHOSPHORUS,[1],10.88 mg/dL
same,POTASSIUM,[1],6.13 MEQ/L
same,SODIUM,[1],140.53 MEQ/L
same,TOTAL BILIRUBIN,[1],0.2 mg/dL
same,TOTAL PROTEIN,[1],5.67 G/DL
same,URIC ACID,[1],1.6 mg/dL
same,ABSOLUTE BASOPHIL,[2],0 CELLS/uL
same,ABSOLUTE EOSINOPHIL,[2],0 CELLS/uL
same,ABSOLUTE LYMPHOCYTE,[2],9526.67 CELLS/uL
same,ABSOLUTE MONOCYTE,[2],134.17 CELLS/uL
same,ABSOLUTE SEGMENTED NEUTROPHIL,[2],922.5 CELLS/uL
same,BASOPHIL,[2],0%
same,EOSINOPHIL,[2],0%
same,ERYTHROCYTE COUNT,[2],5.58 x10E6/uL
same,HEMATOCRIT,[2],34.78%
same,HEMOGLOBIN,[2],13.5 G/DL
same,LEUKOCYTE COUNT,[2],10.58 x10E3/uL
same,LYMPHOCYTE,[2],90.17%
same,MEAN CORPUSCULAR HEMOGLOBIN,[2],24.27 pg
same,MEAN CORPUSCULAR HEMOGLOBIN CONCENTRATION,[2],38.82 G/DL
same,MONOCYTE,[2],1.17%
same,NEUTROPHIL,[2],8.67%
same,NUCLEATED RED BLOOD CELLS,[2],0.17 /100WBC
same,PLATELET COUNT,[2],807.17 x10E3/uL
same,ALANINE AMINOTRANSFERASE,[2],66.83 u/L
same,ALBUMIN,[2],3.73 G/DL
same,ALKALINE PHOSPHATASE,[2],286.17 u/L
same,ASPARTATE AMINOTRANSFERASE,[2],142.33 u/L
same,BLOOD UREA NITROGEN,[2],14.67 mg/dL
same,CARBON DIOXIDE,[2],25.5 mmol/L
same,CHLORIDE,[2],89.17 MEQ/L
same,CHOLESTEROL,[2],75.17 mg/dL
same,CREATINE PHOSPHOKINASE,[2],310.67 u/L
same,CREATININE,[2],0.2 mg/dL
same,GLUCOSE,[2],153 mg/dL
same,LACTATE DEHYDROGENASE,[2],1594 u/L
same,LIPASE,[2],14.83 u/L
same,PHOSPHORUS,[2],11.28 mg/dL
same,POTASSIUM,[2],8.46 MEQ/L
same,SODIUM,[2],126.88 MEQ/L
same,TOTAL BILIRUBIN,[2],0.37 mg/dL
same,TOTAL PROTEIN,[2],5.53 G/DL
same,URIC ACID,[2],1.52 mg/dL
same,ABSOLUTE BASOPHIL,[3],0 CELLS/uL
same,ABSOLUTE EOSINOPHIL,[3],0 CELLS/uL
same,ABSOLUTE LYMPHOCYTE,[3],9376 CELLS/uL
same,ABSOLUTE MONOCYTE,[3],215 CELLS/uL
same,ABSOLUTE SEGMENTED NEUTROPHIL,[3],975.67 CELLS/uL
same,BASOPHIL,[3],0%
same,EOSINOPHIL,[3],0%
same,ERYTHROCYTE COUNT,[3],5.44 x10E6/uL
same,HEMATOCRIT,[3],34.4%
same,HEMOGLOBIN,[3],13.67 G/DL
same,LEUKOCYTE COUNT,[3],10.57 x10E3/uL
same,LYMPHOCYTE,[3],88.67%
same,MEAN CORPUSCULAR HEMOGLOBIN,[3],25.13 pg
same,MEAN CORPUSCULAR HEMOGLOBIN CONCENTRATION,[3],39.73 G/DL
same,MONOCYTE,[3],2%
same,NEUTROPHIL,[3],9.33%
same,NUCLEATED RED BLOOD CELLS,[3],0 /100WBC
same,PLATELET COUNT,[3],1115 x10E3/uL
same,ALANINE AMINOTRANSFERASE,[3],74.33 u/L
same,ALBUMIN,[3],4 G/DL
same,ALKALINE PHOSPHATASE,[3],391 u/L
same,ASPARTATE AMINOTRANSFERASE,[3],107.33 u/L
same,BLOOD UREA NITROGEN,[3],11 mg/dL
same,CARBON DIOXIDE,[3],28.67 mmol/L
same,CHLORIDE,[3],100.67 MEQ/L
same,CHOLESTEROL,[3],69.67 mg/dL
same,CREATINE PHOSPHOKINASE,[3],1227 u/L
same,CREATININE,[3],0.14 mg/dL
same,GLUCOSE,[3],178 mg/dL
same,LACTATE DEHYDROGENASE,[3],183 u/L
same,LIPASE,[3],11 u/L
same,PHOSPHORUS,[3],10.73 mg/dL
same,POTASSIUM,[3],5.94 MEQ/L
same,SODIUM,[3],141 MEQ/L
same,TOTAL BILIRUBIN,[3],0.2 mg/dL
same,TOTAL PROTEIN,[3],5.73 G/DL
